Molecular target: NMDA receptor (GRIN1/GRIN2A) (Homo sapiens, UniProt Q05586+Q12879)
Assay: NMDA potentiation, two electrode voltage clamp (TEVC) of Xenopus oocytes expressing NMDA receptor
Format: cell-based
Settings: 10 μM compound, 3 μM Glutamate and Glycine
Experimental: NMDA potentiation was assessed using either whole cell patch clamp of mammalian cells which expressed NMDA receptors, or using two-electrode voltage clamp (TEVC) of Xenopus Laevis oocytes expressing NMDA receptors.
The Two Electrode Voltage Clamp (TEVC) technique was used to investigate the effects of compounds (10 μM) on the NMDA receptor (GRIN1/GRIN2A) expressed in Xenopus oocytes. Glutamate/Glycine peak and steady-state currents were recorded from oocytes that expressed the NMDA receptor and the modulatory effects of the test items on these currents were investigated.
Ovaries were harvested from Xenopus Laevis females that had been deeply anesthetized by cooling at 4° C. and immersion in Tricaine methanesulfonate (MS-222 at a concentration of 150 mg/L) in sodium bicarbonate (300 mg/L). Once anesthetized the animal was decapitated and pithed following the rules of animal rights from the Geneva canton. A small piece of ovary was isolated for immediate preparation while the remaining part was placed at 4° C. in a sterile Barth solution containing in mM NaCl 88, KCl 1, NaHCO3 2.4, HEPES 10, MgSO4·7H2O 0.82, Ca(NO3)2·4H2O 0.33, CaCl2·6H2O 0.41, at pH 7.4, and supplemented with 20 μg/ml of kanamycin, 100 unit/ml penicillin and 100 μg/ml streptomycin. All recordings were performed at 18° C. and cells were super-fused with medium containing in mM: NaCl 82.5, KCl 2.5, HEPES 5, CaCl2·2H2O, ·6H2O 1, pH 7.4.
Oocytes were injected with either cDNAs encoding for the human GRIN1 and GRIN2A subunits, using a proprietary automated injection device (Hogg et al., J. Neurosci. Methods, (2008) 169: 65-75) and receptor expression was assessed using electrophysiology at least two days later. The ratio of cDNA injection for GRIN1 and GRIN2A was 1:1. Electrophysiological recordings were made using an automated process equipped with standard TEVC and data were captured and analyzed using a proprietary data acquisition and analysis software running under Matlab (Mathworks Inc.). The membrane potential of the oocytes was maintained at −80 mV throughout the experiments. To explore the effects of proprietary compounds, currents were evoked by applying 3 μM Glutamate and […] Glycine for 10 s. Oocytes were then washed for 90 s before being exposed to the test article at a concentration of 10 μM for 120 s. Following this, 3 μM Glutamate and […] Glycine were immediately reapplied for 10 s. Potentiation of both the peak current and the steady state current was assessed. For statistical analysis values were computed either with Excel (Microsoft) or Matlab (Mathworks Inc.). To obtain mean measurements with standard deviations, all experiments were carried out using at least three cells.
Glutamate was prepared as a concentrated stock solution ([…]) in water and then diluted in the recording medium to obtain the desired test concentration. Glycine was prepared as a stock solution at 1 M in water. Compounds were prepared as stock solution ([…]) in DMSO and then diluted in the recording medium to obtain the desired test concentration.

Sequence of NMDA receptor (GRIN1/GRIN2A) (Q12879 23-1464, other chains not shown): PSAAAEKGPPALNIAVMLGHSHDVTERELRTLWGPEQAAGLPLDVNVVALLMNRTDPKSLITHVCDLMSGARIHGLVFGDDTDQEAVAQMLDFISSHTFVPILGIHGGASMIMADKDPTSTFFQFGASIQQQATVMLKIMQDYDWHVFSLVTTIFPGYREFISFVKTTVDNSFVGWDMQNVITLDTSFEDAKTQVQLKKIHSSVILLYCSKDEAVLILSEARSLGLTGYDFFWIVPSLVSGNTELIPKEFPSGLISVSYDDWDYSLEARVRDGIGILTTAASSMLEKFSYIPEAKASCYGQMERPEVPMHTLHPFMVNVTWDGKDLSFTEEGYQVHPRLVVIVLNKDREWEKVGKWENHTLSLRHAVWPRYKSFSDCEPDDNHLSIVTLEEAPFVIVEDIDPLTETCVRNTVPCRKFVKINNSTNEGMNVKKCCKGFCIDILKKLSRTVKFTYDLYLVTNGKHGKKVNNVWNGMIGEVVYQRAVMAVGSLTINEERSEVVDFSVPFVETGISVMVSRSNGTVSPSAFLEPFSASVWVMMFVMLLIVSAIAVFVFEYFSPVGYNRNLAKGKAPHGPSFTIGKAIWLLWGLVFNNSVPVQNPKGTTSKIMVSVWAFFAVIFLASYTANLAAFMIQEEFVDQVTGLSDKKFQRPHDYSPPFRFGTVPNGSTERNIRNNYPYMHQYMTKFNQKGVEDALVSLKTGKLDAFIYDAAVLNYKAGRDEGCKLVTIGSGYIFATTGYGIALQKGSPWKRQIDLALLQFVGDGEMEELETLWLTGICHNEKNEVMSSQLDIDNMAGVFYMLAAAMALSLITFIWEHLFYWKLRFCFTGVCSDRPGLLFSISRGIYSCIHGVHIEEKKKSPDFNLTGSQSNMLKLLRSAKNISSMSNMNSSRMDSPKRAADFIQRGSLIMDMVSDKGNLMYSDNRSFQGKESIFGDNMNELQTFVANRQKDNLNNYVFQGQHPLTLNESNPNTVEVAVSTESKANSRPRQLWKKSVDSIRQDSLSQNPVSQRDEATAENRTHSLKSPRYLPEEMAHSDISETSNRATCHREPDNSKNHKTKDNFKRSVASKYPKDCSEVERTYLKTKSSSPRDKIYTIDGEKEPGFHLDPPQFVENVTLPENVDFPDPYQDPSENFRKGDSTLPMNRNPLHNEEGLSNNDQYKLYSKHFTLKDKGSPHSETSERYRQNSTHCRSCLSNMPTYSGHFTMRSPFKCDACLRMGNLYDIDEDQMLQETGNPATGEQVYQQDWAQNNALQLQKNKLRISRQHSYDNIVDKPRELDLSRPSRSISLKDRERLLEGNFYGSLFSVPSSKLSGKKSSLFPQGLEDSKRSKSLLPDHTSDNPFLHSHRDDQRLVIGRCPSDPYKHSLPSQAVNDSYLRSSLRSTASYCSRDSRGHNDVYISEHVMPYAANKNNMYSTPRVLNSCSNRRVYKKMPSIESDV

Compound	activation at 10 µM
CC[C@]1(O)CC[C@@]2(C)C(=CC[C@H]3[C@@H]4CC[C@H]([C@H](C)CCC(O)C(F)(F)F)[C@@]4(C)CC[C@@H]32)C1 (some centres unmarked) [Compound 2-4]	> 100%
CC[C@]1(O)CC[C@@]2(C)[C@@H](CC[C@@H]3[C@@H]2CC[C@]2(C)[C@@H]([C@H](C)CCC(O)C(F)(F)F)CC[C@@H]32)C1 (some centres unmarked) [Compound 2-5]	50 to 100%
CC[C@]1(O)CC[C@@]2(C)C(=CC[C@H]3[C@@H]4CC[C@H]([C@H](C)CC[C@@H](O)C(F)(F)F)[C@@]4(C)CC[C@@H]32)C1 [Compound 2-7]	> 100%
CC[C@]1(O)CC[C@@]2(C)C(=CC[C@H]3[C@@H]4CC[C@H]([C@H](C)CC[C@H](O)C(F)(F)F)[C@@]4(C)CC[C@@H]32)C1 [Compound 2-8]	50 to 100%
CC[C@]1(O)CC[C@@]2(C)[C@@H](CC[C@@H]3[C@@H]2CC[C@]2(C)[C@@H]([C@H](C)CC[C@H](O)C(F)(F)F)CC[C@@H]32)C1 [Compound 2-10]	10 to 50%
C[C@H](CCC(C)(O)C(F)(F)F)[C@H]1CC[C@H]2[C@@H]3CC=C4C[C@@](C)(O)CC[C@]4(C)[C@H]3CC[C@]12C (some centres unmarked) [Compound 3-2]	> 100%
C[C@H](CCC(C)(O)C(F)(F)F)[C@H]1CC[C@H]2[C@@H]3CC[C@H]4C[C@@](C)(O)CC[C@]4(C)[C@H]3CC[C@]12C (some centres unmarked) [Compound 3-3]	50 to 100%
C[C@H](CC[C@](C)(O)C(F)(F)F)[C@H]1CC[C@H]2[C@@H]3CC=C4C[C@@](C)(O)CC[C@]4(C)[C@H]3CC[C@]12C [Compound 3-5]	10 to 50%
C[C@H](CC[C@@](C)(O)C(F)(F)F)[C@H]1CC[C@H]2[C@@H]3CC=C4C[C@@](C)(O)CC[C@]4(C)[C@H]3CC[C@]12C [Compound 3-6]	50 to 100%
C[C@H](CC[C@@](C)(O)C(F)(F)F)[C@H]1CC[C@H]2[C@@H]3CC[C@H]4C[C@@](C)(O)CC[C@]4(C)[C@H]3CC[C@]12C [Compound 3-7]	10 to 50%
C[C@H](CC[C@](C)(O)C(F)(F)F)[C@H]1CC[C@H]2[C@@H]3CC[C@H]4C[C@@](C)(O)CC[C@]4(C)[C@H]3CC[C@]12C [Compound 3-8]	50 to 100%
CC[C@@](C)(O)CC[C@@H](C)[C@H]1CC[C@H]2[C@@H]3CC[C@H]4C[C@@](C)(O)CC[C@]4(C)[C@H]3CC[C@]12C [Compound 4-9]	10 to 50%
CC[C@](C)(O)CC[C@@H](C)[C@H]1CC[C@H]2[C@@H]3CC[C@H]4C[C@@](C)(O)CC[C@]4(C)[C@H]3CC[C@]12C [Compound 4-10]	10 to 50%
CC[C@@](C)(O)CC[C@@H](C)[C@H]1CC[C@H]2[C@@H]3CC=C4C[C@@](C)(O)CC[C@]4(C)[C@H]3CC[C@]12C [Compound 4-11]	> 100%
CC[C@](C)(O)CC[C@@H](C)[C@H]1CC[C@H]2[C@@H]3CC=C4C[C@@](C)(O)CC[C@]4(C)[C@H]3CC[C@]12C [Compound 4-12]	50 to 100%
CCC[C@](C)(O)CC[C@@H](C)[C@H]1CC[C@H]2[C@@H]3CC=C4C[C@@](C)(O)CC[C@]4(C)[C@H]3CC[C@]12C [Compound 5-5]	10 to 50%
CCC[C@@](C)(O)CC[C@@H](C)[C@H]1CC[C@H]2[C@@H]3CC=C4C[C@@](C)(O)CC[C@]4(C)[C@H]3CC[C@]12C [Compound 5-6]	10 to 50%
CCC[C@](C)(O)CC[C@@H](C)[C@H]1CC[C@H]2[C@@H]3CC[C@H]4C[C@@](C)(O)CC[C@]4(C)[C@H]3CC[C@]12C [Compound 5-7]	50 to 100%
CCC[C@@](C)(O)CC[C@@H](C)[C@H]1CC[C@H]2[C@@H]3CC[C@H]4C[C@@](C)(O)CC[C@]4(C)[C@H]3CC[C@]12C [Compound 5-8]	50 to 100%

Compound	activation at 10 µM
C[C@H](CCC(C)(O)CCCO)[C@H]1CC[C@H]2[C@@H]3CC=C4C[C@@](C)(O)CC[C@]4(C)[C@H]3CC[C@]12C (some centres unmarked) [Compound 6-3]	50 to 100%
C=CCC(C)(O)CC[C@@H](C)[C@H]1CC[C@H]2[C@@H]3CC[C@H]4C[C@@](C)(O)CC[C@]4(C)[C@H]3CC[C@]12C (some centres unmarked) [Compound 6-6]	50 to 100%
C=CC[C@@](C)(O)CC[C@@H](C)[C@H]1CC[C@H]2[C@@H]3CC=C4C[C@@](C)(O)CC[C@]4(C)[C@H]3CC[C@]12C [Compound 6-8]	10 to 50%
C[C@H](CC[C@@](C)(O)CCCO)[C@H]1CC[C@H]2[C@@H]3CC=C4C[C@@](C)(O)CC[C@]4(C)[C@H]3CC[C@]12C [Compound 6-9]	10 to 50%
C=CC[C@](C)(O)CC[C@@H](C)[C@H]1CC[C@H]2[C@@H]3CC[C@H]4C[C@@](C)(O)CC[C@]4(C)[C@H]3CC[C@]12C [Compound 6-11]	10 to 50%
CCCC[C@](C)(O)CC[C@@H](C)[C@H]1CC[C@H]2[C@@H]3CC=C4C[C@@](C)(O)CC[C@]4(C)[C@H]3CC[C@]12C [Compound 7-4]	50 to 100%
CCCC[C@@](C)(O)CC[C@@H](C)[C@H]1CC[C@H]2[C@@H]3CC=C4C[C@@](C)(O)CC[C@]4(C)[C@H]3CC[C@]12C [Compound 7-5]	10 to 50%
CCCC[C@](C)(O)CC[C@@H](C)[C@H]1CC[C@H]2[C@@H]3CC[C@H]4C[C@@](C)(O)CC[C@]4(C)[C@H]3CC[C@]12C [Compound 7-6]	> 100%
CCCC[C@@](C)(O)CC[C@@H](C)[C@H]1CC[C@H]2[C@@H]3CC[C@H]4C[C@@](C)(O)CC[C@]4(C)[C@H]3CC[C@]12C [Compound 7-7]	10 to 50%
CC(C)[C@@](C)(O)CC[C@@H](C)[C@H]1CC[C@H]2[C@@H]3CC[C@H]4C[C@@](C)(O)CC[C@]4(C)[C@H]3CC[C@]12C [Compound 8-5]	10 to 50%
CC(C)[C@](C)(O)CC[C@@H](C)[C@H]1CC[C@H]2[C@@H]3CC[C@H]4C[C@@](C)(O)CC[C@]4(C)[C@H]3CC[C@]12C [Compound 8-6]	10 to 50%
CC(C)[C@@](C)(O)CC[C@@H](C)[C@H]1CC[C@H]2[C@@H]3CC=C4C[C@@](C)(O)CC[C@]4(C)[C@H]3CC[C@]12C [Compound 8-7]	50 to 100%
CC(C)[C@](C)(O)CC[C@@H](C)[C@H]1CC[C@H]2[C@@H]3CC=C4C[C@@](C)(O)CC[C@]4(C)[C@H]3CC[C@]12C [Compound 8-8]	> 100%
C[C@H](CC[C@@](C)(O)C1CC1)[C@H]1CC[C@H]2[C@@H]3CC=C4C[C@@](C)(O)CC[C@]4(C)[C@H]3CC[C@]12C [Compound 9-3]	50 to 100%
C[C@H](CC[C@](C)(O)C1CC1)[C@H]1CC[C@H]2[C@@H]3CC=C4C[C@@](C)(O)CC[C@]4(C)[C@H]3CC[C@]12C [Compound 9-4]	50 to 100%
C[C@H](CCC(C)(O)C1CC1)[C@H]1CC[C@H]2[C@@H]3CC[C@H]4C[C@@](C)(O)CC[C@]4(C)[C@H]3CC[C@]12C (some centres unmarked) [Compound 9-6]	50 to 100%
C[C@H](CC[C@@](C)(O)C1CC1)[C@H]1CC[C@H]2[C@@H]3CC[C@H]4C[C@@](C)(O)CC[C@]4(C)[C@H]3CC[C@]12C [Compound 9-7]	10 to 50%
C[C@H](CC[C@](C)(O)C1CC1)[C@H]1CC[C@H]2[C@@H]3CC[C@H]4C[C@@](C)(O)CC[C@]4(C)[C@H]3CC[C@]12C [Compound 9-8]	10 to 50%
C#CC(C)(O)CC[C@@H](C)[C@H]1CC[C@H]2[C@@H]3CC=C4C[C@@](C)(O)CC[C@]4(C)[C@H]3CC[C@]12C (some centres unmarked) [Compound 10-2]	50 to 100%
